Test results from US9012513B2, “Antioxidant, antioxidant composition and production method therefor” (Watanabe Oyster Laboratory Co., Ltd., priority 2011, dated 2015).
“Also recorded” adds a separate entry of the source.

Columns and labels:
normal human LDL = experiment: metal oxidation of normal human LDL by copper sulfate, quantitated by TBARS method; assay type: biochemical
Method: When normal human LDL is oxidized by copper sulfate, 3,5-dihydroxy-4-methoxybenzyl alcohol was added, and the degree of oxidation of the LDL was quantitated by a TBARS method (see FIG. 11). […] The Lag-time refers to a period where a rise of a curve is not observed. It is determined that, as the time increases, antioxidant activity occurs. However, the lag-time was extended by dose dependency. The lag-time was 2 hours for addition of 270 μM, 4 hours for addition of 360 μM, and 5 hours for addition of 450 μM and 540 μM.

[1] = properties of the separated and purified substance (solubility); assay type: physicochemical
Excerpt: Here, the properties of 3,5-dihydroxy-4-methoxybenzyl alcohol, which was separated and purified, will be described. […] It was confirmed that the 3,5-dihydroxy-4-methoxybenzyl alcohol was a phenolic compound as illustrated in FIG. 8.

[2] = tested on: cell line (C3A) in a liver; experiment: oxidation of DPPP-labeled hepatocyte culture (C3A) by AAPH; assay type: cell-based; conditions: cultured for 5 days with the substance, compared with cell without the substance
Method: FIG. 12 illustrates the principle of the fluorescence of the diphenyl-1-pyrenlphosphine (DPPP). Using the fluorescent dye, the degree of oxidation of a cell line (C3A) in a liver was observed.
A cell where the 3,5-dihydroxy-4-methoxybenzyl alcohol according to the present invention had been added was cultured for 5 days. The cell labeled by DPPP was oxidized by 2,2′-azobis (2-methylpropionamidine)dihydrochloide, and then the fluorescence intensity of the DPPP in each cell was measured. […] It was confirmed that the antioxidant substance, 3,5-dihydroxy-4-methoxybenzyl alcohol, reduced the oxidation (see FIG. 13).

[3] = antioxidant capacity by the ORAC method (Fluorescein, AAPH); assay type: biochemical
Method: The 3,5-dihydroxy-4-methoxybenzyl alcohol can be separated and purified by the following operation. First, Trolox (Wako) or a test sample of 0.05 mL dissolved in a mixed solution of 0.075 mol/L phosphoric acid buffer solution 2.3 of 5 mL, 6.3×10^−7 mol/L Fluorescein (fluorescent probe) of 0.3 mL, and 7% (w/v) methylated β-cyclodextrin (Wako) was warmed for 10 minutes at 37° C.
1.28×10^−1 mol/L2,2′-azobis(2-amidinopropane)dihydrochloride (AAPH, Wako), which has been preliminarily warmed at 37° C., was added by 0.3 mL. For example, while stirring with a stirrer, a fluorescence intensity (excitation wavelength: 493 nm, fluorescence wavelength: 515 nm) was measured for every 10 seconds and up to 5,000 seconds by a spectrofluorophotometer (FP-6500 , JASCO, Tokyo).
An antioxidant activity is indicated by length of period (for example, the horizontal axis in FIG. 5) during which a measured fluorescence value (the vertical axis in the same drawing) at the start of measurement is maintained. The longer the period, the stronger the antioxidant activity is.
Methods for measuring an antioxidant substance in a food product have been variously reported. However, all the methods have a drawback and an advantage, and therefore the method has not been standardized or determined as an official method (confirmation of validity of an analysis value). However, in the United States of America, a supplement and a beverage with an ORAC value have already been on the market. This trend is becoming a world standard. Accordingly, in this working example, the antioxidative potency is measured by the ORAC method.
A research conference that studies on employing the ORAC method as an official method (Antioxidant-Unit Research Association) has already been founded in Japan. The ORAC method has advantages in that both a soluble sample and a liposoluble sample can be measured and the above-described any organic solvent fractions can be measured. […]

In the case of COc1c(O)cc(CO)cc1O [3,5-dihydroxy-4-methoxybenzyl alcohol], the “lag-time of LDL oxidation” value (normal human LDL; addition of 270 μM) is reported as 2 h, the “lag-time of LDL oxidation” value (normal human LDL; addition of 360 μM) is reported as 4 h and the “lag-time of LDL oxidation” value (normal human LDL; addition of 450 μM) is reported as 5 h. The “lag-time of LDL oxidation” value (normal human LDL; addition of 540 μM) was 5 h, the “effect on metal oxidation of the LDL” value (normal human LDL; copper sulfate, TBARS) was “reduced the metal oxidation of the LDL; also recorded: showed an antioxidant capacity in a dose-dependent manner” and the “lag-time of LDL oxidation” value (normal human LDL; substance added at 180 μM) was “lag-time was not observed”. For the same compound, the solubility [1] was “show lipid solubility and water solubility”, the “fluorescence intensity of DPPP / oxidation of C3A cell” value [2] was “concentration dependence and low fluorescence intensity; also recorded: significantly reduced oxidation of a C3A cell; also recorded: showed an antioxidant capacity in a dose-dependent manner” and the “ORAC value relative to that of L(+)-ascorbic acid” value [3] was “three times”. For the same compound, the “antioxidant capacity / antioxidant activity observed by the ORAC method” value ([3]; length of period during which the fluorescence value is maintained) was “high antioxidant activity was observed; also recorded: high antioxidant capacity between those of a chlorogenic acid and L(+)- the ascorbic acid” and the ORAC value ([3]; synthesized product) was 1.47±0.40 μmoITE/μmol.
